For experiment [1], the target named is T1, Human KIF18A (amino acid sequence 1-417) (Homo sapiens, UniProt Q8NI77).
T1 construct: purchased Viva Biotech (Shanghai) Ltd
T1 sequence (Q8NI77 1-417): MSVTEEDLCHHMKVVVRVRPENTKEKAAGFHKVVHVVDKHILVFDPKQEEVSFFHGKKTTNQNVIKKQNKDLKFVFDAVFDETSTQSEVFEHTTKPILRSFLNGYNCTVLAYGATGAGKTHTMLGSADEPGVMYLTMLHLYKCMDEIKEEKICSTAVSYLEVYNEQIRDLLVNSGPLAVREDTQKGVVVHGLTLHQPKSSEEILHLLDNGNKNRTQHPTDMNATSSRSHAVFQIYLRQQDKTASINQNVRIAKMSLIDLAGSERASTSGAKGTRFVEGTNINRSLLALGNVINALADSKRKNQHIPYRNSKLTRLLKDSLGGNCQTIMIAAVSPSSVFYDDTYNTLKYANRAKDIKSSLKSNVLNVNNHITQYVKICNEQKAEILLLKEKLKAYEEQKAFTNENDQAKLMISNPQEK
The experiment is described as follows: Enzymatic activity test (ADP-Glo, microtubule-stimulated KIF18A ATPase). It is filed as biochemical. Particulars: 60 μg/mL microtubules, 25 μM ATP, 2.5 nM KIF18A protein, 120 min at ambient temperature, read-out: KIF18A_nM. Summed up: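 Microtubule-stimulated ATPase of KIF18A(1-417) run with 60 μg/mL microtubules, 25 μM ATP and 2.5 nM enzyme, compounds at 0-10 μM final, 120 min at ambient temperature. ADP formed was read by ADP-Glo chemiluminescence after two 30-min reagent incubations.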
Background: ADP-Glo first removes unused ATP, then detects ADP through luciferase.

The test system of experiment [2] is OVCAR3 cells. As to the kind of experiment: Cell proliferation activity test in OVCAR3 cells (CyQUANT Direct). It is filed as cell-based. The note with it: Homo sapiens, OVCAR-3, 72 h, 3 days incubation, CyQUANT fluorescence detection, read-out: OVCAR-3_IC50_nM. In outline:
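Log-phase cells in RPMI-1640 with 10% FBS were seeded overnight, then exposed to compound at final 0–10 μM (0.2% DMSO) for 3 days at 37 °C, 5% CO2. Proliferation was read by CyQUANT Direct fluorescence after 60 min at 37 °C.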

The subject of experiment [3] is HT29 cells. As to the kind of experiment: CyQuant cell proliferation activity test in HT29 cells. It is filed as cell-based. The note with it: Homo sapiens, HT-29, 72 h, 2000 cells per well, 3 days incubation, IC50 by XLFIT, read-out: HT29_IC50_nM. In outline: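 Cells seeded at 2000/well in RPMI-1640 with 10% FBS, overnight, then exposed 3 days at 37 °C to compound from 3000 nM top, 3-fold, 9 points, 0.2% DMSO. CyQuant read after 1 h; IC50 from curve fit.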

Here are results for 7 molecules from patent US20260159500A1, “KINESIN KIF18A INHIBITOR AND USE THEREOF” (SHANGHAI APEIRON THERAPEUTICS COMPANY LIMITED, priority 2022, published 2026).

With `Cc1cnc2c(N3CCC(F)(F)CC3)c(F)c(NC(=O)c3ccc(NS(=O)(=O)CCO)cc3N3CCC4(CC3)CC4)cc2c1` [Example 90, 2-{6-azaspiro[2.5]octan-6-yl}-N-[8-(4,4-difluoropiperidin-1-yl)-7-fluoro-3-methylquinolin-6-yl]-4-(2-hydroxyethanesulfonamido)benzamide], the results for the IC50 in experiment [1], in experiment [2] and in experiment [3] were 341 nM, 96 nM and 106 nM, respectively.

For `Nc1cnc2c(N3CCC(F)(F)CC3)c(F)c(NC(=O)c3ccc(NS(=O)(=O)CCO)cc3N3CCC4(CC3)CC4)cc2c1` [Example 91, N-[3-amino-8-(4,4-difluoropiperidin-1-yl)-7-fluoroquinolin-6-yl]-2-{6-azaspiro[2.5]octan-6-yl}-4-(2-hydroxyethanesulfonamido)benzamide], the IC50 was determined as 173 nM in experiment [1], 13 nM in experiment [2] and 16 nM in experiment [3].

As to `C[C@H](CO)S(=O)(=O)Nc1ccc(C(=O)Nc2cc3cccnc3c(N3CCC(F)(F)CC3)n2)c(N2CCC3(CC2)CC3)c1` [Example 96, 2-{6-Azaspiro[2.5]octan-6-yl}-N-[8-(4,4-difluoropiperidin-1-yl)-1,7-naphthyridin-6-yl]-4-[(2R)-1-hydroxypropane-2-sulfonamido]benzamide], the IC50 turned out to be 153 nM in experiment [1], 11.3 nM in experiment [2] and 17 nM in experiment [3].

As for `C[C@@H](CO)S(=O)(=O)Nc1ccc(C(=O)Nc2cc3cccnc3c(N3CCC(F)(F)CC3)n2)c(N2CCC3(CC2)CC3)c1` [Example 97, 2-{6-azaspiro[2.5]octan-6-yl}-N-[8-(4,4-difluoropiperidin-1-yl)-1,7-naphthyridin-6-yl]-4-[(2S)-1-hydroxypropane-2-sulfonamido]benzamide], the values for the IC50 in experiment [1], in experiment [2] and in experiment [3] were 153 nM, 13.9 nM and 17 nM, respectively.

For the molecule `C[C@H](CO)S(=O)(=O)Nc1ccc(C(=O)Nc2cc3cccnc3c(N3CCC(F)(F)CC3)c2F)c(N2CCC3(CC2)CC3)c1` [Example 98, 2-{6-azaspiro[2.5]octan-6-yl}-N-[8-(4,4-difluoropiperidin-1-yl)-7-fluoroquinolin-6-yl]-4-[(2R)-1-hydroxypropane-2-sulfonamido]benzamide], the IC50 in experiment [1] was 166 nM; in experiment [2] it was 17 nM; in experiment [3], 21 nM.

For the molecule `C[C@@H](CO)S(=O)(=O)Nc1ccc(C(=O)Nc2cc3cccnc3c(N3CCC(F)(F)CC3)c2F)c(N2CCC3(CC2)CC3)c1` [Example 99, 2-{6-azaspiro[2.5]octan-6-yl}-N-[8-(4,4-difluoropiperidin-1-yl)-7-fluoroquinolin-6-yl]-4-[(2S)-1-hydroxypropane-2-sulfonamido]benzamide], the IC50 in experiment [1] came to 174 nM; in experiment [2], 17 nM; in experiment [3], 22 nM.

Regarding `O=C(Nc1ccc(NS(=O)(=O)CCO)cc1N1CCC2(CC1)CC2)c1cc(N2CCC(F)(F)CC2)c2ncccc2c1` [Example 100, N-(2-{6-azaspiro[2.5]octan-6-yl}-4-(2-hydroxyethanesulfonamido)phenyl)-8-(4,4-difluoropiperidin-1-yl)quinoline-6-carboxamide], the values for the IC50 in experiment [1], in experiment [2] and in experiment [3] were 24 nM, 11 nM and 12 nM, respectively.
